Patent US11958844B2, “1,3,4-oxadiazole derivative compounds as histone deacetylase 6 inhibitor, and pharmaceutical composition comprising the same” (Chong Kun Dang Pharmaceutical Corp., priority 2018, dated 2024)

biological target: T1, HDAC6 human recombinant (Homo sapiens, UniProt Q9UBN7); assay: HDAC enzyme activity inhibition (in vitro), fluorimetric HDAC6 assay; assay type: biochemical; conditions: samples at 0.1, 1, 10, 100 and 1000 nM, 37° C. 60 minutes, fluorescence Ex 390, Em 460
T1 sequence (Q9UBN7 1-1215): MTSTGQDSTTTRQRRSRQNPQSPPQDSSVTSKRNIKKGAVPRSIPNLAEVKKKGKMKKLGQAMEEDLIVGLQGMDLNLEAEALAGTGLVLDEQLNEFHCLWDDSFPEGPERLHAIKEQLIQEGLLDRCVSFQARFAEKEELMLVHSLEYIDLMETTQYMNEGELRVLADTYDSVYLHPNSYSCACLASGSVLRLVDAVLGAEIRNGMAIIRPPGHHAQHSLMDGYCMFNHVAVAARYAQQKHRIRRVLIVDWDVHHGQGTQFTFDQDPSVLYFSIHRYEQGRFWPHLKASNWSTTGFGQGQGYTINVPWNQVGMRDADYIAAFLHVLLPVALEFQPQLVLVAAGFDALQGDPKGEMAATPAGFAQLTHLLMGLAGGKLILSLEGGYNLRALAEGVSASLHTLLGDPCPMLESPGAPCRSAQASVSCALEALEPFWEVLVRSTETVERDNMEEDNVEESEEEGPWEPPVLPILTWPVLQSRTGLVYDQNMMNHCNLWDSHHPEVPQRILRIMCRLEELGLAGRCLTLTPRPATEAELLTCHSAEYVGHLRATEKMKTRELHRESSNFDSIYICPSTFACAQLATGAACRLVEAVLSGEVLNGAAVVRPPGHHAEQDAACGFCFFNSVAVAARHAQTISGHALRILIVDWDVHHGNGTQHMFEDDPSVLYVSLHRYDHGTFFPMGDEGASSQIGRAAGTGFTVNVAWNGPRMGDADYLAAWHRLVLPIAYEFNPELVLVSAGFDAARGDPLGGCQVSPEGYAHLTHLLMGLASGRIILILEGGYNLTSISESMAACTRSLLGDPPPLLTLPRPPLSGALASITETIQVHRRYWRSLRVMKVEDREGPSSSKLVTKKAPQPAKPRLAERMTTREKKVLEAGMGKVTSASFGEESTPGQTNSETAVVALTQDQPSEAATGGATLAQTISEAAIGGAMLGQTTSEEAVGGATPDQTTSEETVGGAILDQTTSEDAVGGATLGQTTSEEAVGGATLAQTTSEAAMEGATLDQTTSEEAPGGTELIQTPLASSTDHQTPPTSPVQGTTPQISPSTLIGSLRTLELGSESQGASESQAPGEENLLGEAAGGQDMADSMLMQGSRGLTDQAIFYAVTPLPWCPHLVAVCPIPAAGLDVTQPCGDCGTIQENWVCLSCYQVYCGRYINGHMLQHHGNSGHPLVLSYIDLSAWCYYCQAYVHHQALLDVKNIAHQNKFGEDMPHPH
Protocol: To identify this, HDAC1/6 enzyme selectivity and cell selectivity (HDAC1: histone acetylation/HDAC6: tubulin acetylation) were investigated accordingly.
An HDAC enzyme inhibitory ability of a test material was measured by means of HDAC1 Fluorimetric Drug Discovery Assay Kit (Enzolifesciences: BML-AK511) and HDAC6 human recombinant (Calbiochem: 382180). For an HDAC1 assay, samples were treated at a concentration of 100, 1000 and 10000 nM. For an HDAC6 assay, samples were treated at a concentration of 0.1, 1, 10, 100 and 1000 nM. After such sample treatment, a reaction was continued at 37° C. for 60 minutes, then treated with a developer, and then subjected to reaction at 37° C. for 30 minutes, after which fluorescence intensity (Ex 390, Em 460) was measured by means of FlexStation3 (Molecular device).

SMILES | IC50 [nM]
O=c1cc(-c2nnc(C(F)F)o2)ccn1CCn1cccn1 [Compound 6, 1-(2-(1H-pyrazole-1-yl)ethyl)-4-(5-(difluoromethyl)-1,3,4-oxadiazole-2-yl)pyridine-2(1H)-one] | 456
O=C(Cn1ccc(-c2nnc(C(F)F)o2)cc1=O)c1ccc2ccccc2c1 [Compound 7, 4-(5-(difluoromethyl)-1,3,4-oxadiazole-2-yl)-1-(2-(naphthalene-2-yl)-2-oxoethyl)pyridine-2(1H)-one] | 364
CCN(CC)CCn1ccc(-c2nnc(C(F)F)o2)cc1=O [Compound 11, 1-(2-(diethylamino)ethyl)-4-(5-(difluoromethyl)-1,3,4-oxadiazole-2-yl)pyridine-2(1H)one] | 2250
O=c1cc(-c2nnc(C(F)F)o2)ccn1Cc1ccccc1Cl [Compound 12, 1-(2-chlorobenzyl)-4-(5-(difluoromethyl)-1,3,4-oxadiazole-2-yl)pyridine-2(1H)-one] | 631
O=c1cc(-c2nnc(C(F)F)o2)ccn1Cc1cc(F)c(F)cc1F [Compound 13, 4-(5-(difluoromethyl)-1,3,4-oxadiazole-2-yl)-1-(2,4,5-trifluorobenzyl)pyridine-2(1H)-one] | 306
O=C(OCCn1ccc(-c2nnc(C(F)F)o2)cc1=O)c1ccccc1 [Compound 16, 2-(4-(5-(difluoromethyl)-1,3,4-oxadiazole-2-yl)-2-oxopyridine-1(2H)-yl)ethyl] | 952
O=c1cc(-c2nnc(C(F)F)o2)ccn1Cc1ccccc1F [Compound 17, 4-(5-(difluoromethyl)-1,3,4-oxadiazole-2-yl)-1-(2-fluorobenzyl)pyridine-2(1H)-one] | 507
O=C(Cn1ccc(-c2nnc(C(F)F)o2)cc1=O)c1ccc(Cl)c(Cl)c1 [Compound 18, 1-(2-(3,4-dichlorophenyl)-2-oxoethyl)-4-(5-(difluoromethyl)-1,3,4-oxadiazole-2-yl)pyridine-2(1H)-one] | 509
O=C(Cn1ccc(-c2nnc(C(F)F)o2)cc1=O)c1ccc(Cl)cc1 [Compound 19, 1-(2-(4-chlorophenyl)-2-oxoethyl)-4-(5-(difluoromethyl)-1,3,4-oxadiazole-2-yl)pyridine-2(1H)-one] | 351
O=C(Cn1ccc(-c2nnc(C(F)F)o2)cc1=O)c1ccc2c(c1)OCCO2 [Compound 21] | 381
COc1cccc(C(=O)Cn2ccc(-c3nnc(C(F)F)o3)cc2=O)c1 [Compound 22, 4-(5-(difluoromethyl)-1,3,4-oxadiazole-2-yl)-1-(2-(3-methoxyphenyl)-2-oxoethyl)pyridine-2(1H)-one] | 427
Cc1cc(C(=O)Cn2ccc(-c3nnc(C(F)F)o3)cc2=O)c(F)cc1Cl [Compound 23, 1-(2-(4-chloro-2-fluoro-5-methylphenyl)-2-oxoethyl)-4-(5-(difluoromethyl)-1,3,4-oxadiazole-2-yl)pyridine-2(1H)-one] | 598
COc1ccc(OC)c(C(=O)Cn2ccc(-c3nnc(C(F)F)o3)cc2=O)c1 [Compound 24, 4-(5-(difluoromethyl)-1,3,4-oxadiazole-2-yl)-1-(2-(2,5-dimethoxyphenyl)-2-oxoethyl) pyridine-2(1H)-one] | 284
O=c1cc(-c2nnc(C(F)F)o2)ccn1Cc1ccc([N+](=O)[O-])cc1 [Compound 26, 4-(5-(difluoromethyl)-1,3,4-oxadiazole-2-yl)-1-(4-nitrobenzyl)pyridine-2(1H)-one] | 272
CCC(CC)Cn1ccc(-c2nnc(C(F)F)o2)cc1=O [Compound 27, 4-(5-(difluoromethyl)-1,3,4-oxadiazole-2-yl)-1-(2-ethylbutyl)pyridine-2(1H)-one] | 726
O=c1cc(-c2nnc(C(F)(F)F)o2)ccn1Cc1cc(F)c(F)cc1F [Compound 30, 1-(2,4,5-trifluorobenzyl)-4-(5-(trifluoromethyl)-1,3,4-oxadiazole-2-yl)pyridine-2(1H)one] | 1790
O=c1cc(-c2nnc(C(F)(F)F)o2)ccn1Cc1cccc(F)c1 [Compound 31, 1-(3-fluorobenzyl)-4-(5-(trifluoromethyl)-1,3,4-oxadiazole-2-yl)pyridine-2(1H)-one] | 1100
O=c1cc(-c2nnc(C(F)(F)F)o2)ccn1Cc1ccccc1F [Compound 32, 1-(2-fluorobenzyl)-4-(5-(trifluoromethyl)-1,3,4-oxadiazole-2-yl)pyridine-2(1H)-one] | 2420
O=c1cc(-c2nnc(C(F)(F)F)o2)ccn1Cc1cc(F)ccc1F [Compound 33, 1-(2,5-difluorobenzyl)-4-(5-(trifluoromethyl)-1,3,4-oxadiazole-2-yl)pyridine-2(1H)-one] | 1270

Compounds with a lower IC50, results first:

IC50 [nM] | SMILES
261 | O=C1c2ccccc2C(=O)N1CCCCn1ccc(-c2nnc(C(F)F)o2)cc1=O [Compound 29, 2-(4-(4-(5-(difluoromethyl)-1,3,4-oxadiazole-2-yl)-2-oxopyridine-1(2H)-yl)butyl)isoindoline-1,3-dione]
257 | COc1ccc(C(=O)Cn2ccc(-c3nnc(C(F)F)o3)cc2=O)c(OC)c1 [Compound 20, 4-(5-(difluoromethyl)-1,3,4-oxadiazole-2-yl)-1-(2-(2,4-dimethoxyphenyl)-2-oxoethyl) pyridine-2(1H)-one]
253 | COc1cc(CCn2ccc(-c3nnc(C(F)F)o3)cc2=O)cc(OC)c1 [Compound 8, 4-(5-(difluoromethyl)-1,3,4-oxadiazole-2-yl)-1-(3,5-dimethoxyphenethyl)pyridine-2(1H)-one]
247 | O=c1cc(-c2nnc(C(F)F)o2)ccn1CCC1OCCCO1 [Compound 9, 1-(2-(1,3-dioxane-2-yl)ethyl)-4-(5-(difluoromethyl)-1,3,4-oxadiazole-2-yl)pyridine-2(1H)-one]
239 | O=C(Cn1ccc(-c2nnc(C(F)F)o2)cc1=O)c1ccc([N+](=O)[O-])cc1 [Compound 25, 4-(5-(difluoromethyl)-1,3,4-oxadiazole-2-yl)-1-(2-(4-nitrophenyl)-2-oxoethyl)pyridine-2(1H)-one]
217 | O=c1cc(-c2nnc(C(F)F)o2)ccn1Cc1cc(F)ccc1F [Compound 10, 1-(2,5-difluorobenzyl)-4-(5-(difluoromethyl)-1,3,4-oxadiazole-2-yl)pyridine-2(1H)-one]
210 | O=C(Cn1ccc(-c2nnc(C(F)F)o2)cc1=O)c1ccccc1 [Compound 3, 4-(5-(difluoromethyl)-1,3,4-oxadiazole-2-yl)-1-(2-oxo-2-phenylethyl)pyridine-2(1H)-one]
156 | O=c1cc(-c2nnc(C(F)F)o2)ccn1Cc1noc(C(F)(F)F)n1 [Compound 28, 4-(5-(difluoromethyl)-1,3,4-oxadiazole-2-yl)-1-((5-(trifluoromethyl)-1,2,4-oxadiazole-3-yl)methyl)pyridine-2(1H)-one]
108 | O=c1cc(-c2nnc(C(F)F)o2)ccn1Cc1cccc(F)c1 [Compound 14, 4-(5-(difluoromethyl)-1,3,4-oxadiazole-2-yl)-1-(3-fluorobenzyl)pyridine-2(1H)-one]
82 | O=c1cc(-c2nnc(C(F)F)o2)ccn1Cc1ccc2ccccc2c1 [Compound 1, 4-(5-(difluoromethyl)-1,3,4-oxadiazole-2-yl)-1-(naphthalene-2-ylmethyl)pyridine-2(1H)-one]
74 | O=C(Cn1ccc(-c2nnc(C(F)F)o2)cc1=O)OCc1ccccc1 [Compound 15, benzyl 2-(4-(5-(difluoromethyl)-1,3,4-oxadiazole-2-yl)-2-oxopyridine-1(2H)-yl)acetate]
40 | O=c1cc(-c2nnc(C(F)F)o2)ccn1C/C=C/c1ccccc1 [Compound 5, 1-cinnamyl-4-(5-(difluoromethyl)-1,3,4-oxadiazole-2-yl)pyridine-2(1H)-one]
